# Experimental data published in patent US20020173538A1, “Method for sensitizing cancer cells to cancer therapies with a mevalonate-reducing compound” (priority 2000, published 2002).
# Where two headings read alike, the source gives them in different places. Marks after values point to notes of the source that are not given here.
# Assays:
# Hep 3B cells [1] = test: MTT cell viability assay, Hep 3B cells (serum-free DMEM)
# Source text: (§1) Human hepatoma cell lines Hep G2 and Hep 3 were chosen as the in vitro models of hepatocytes and hepatoma, respectively.
# Hep 3B/T2 cells = test: Tumor growth of Hep 3B/T2 cells in nude mice; assay type: in vivo, BALB/c-nu/nu nude mice
# Source text: The descriptive statistics were summarized as mean±STD. For statistical analysis, Student's t-test was used to determine significance of mean differences between groups.
# Hep 3B cells [2] = test: Cell cycle determination by flow cytometry, Hep 3B; assay type: cell-based, human; details: cell line not given
# Hep G2 cells = test: MTT cell viability assay, Hep G2 cells (serum-free DMEM); details: Homo sapiens
# Source text: as §1
# [3] = LOV 10 μM 48 hr, then LOV 10 μM without MVA another 24 hr
# [4] = LOV 10 μM 48 hr, then LOV 10 μM without MVA another 48 hr
# [5] = LOV 10 μM 48 hr, then LOV 10 μM without MVA another 72 hr
# [6] = Cycle 2 (Day 63), LOV 37.5 mg/kg/day p.o. days 28-34 and 49-55 and/or taxol 120 μg/kg/2 day i.p. day 36, 38, 40, 57, 59, 61
compound,measurement,setting,value
"CC[C@H](C)C(=O)O[C@H]1C[C@@H](C)C=C2C=C[C@H](C)[C@H](CC[C@@H]3C[C@@H](O)CC(=O)O3)[C@H]21 [Lovastatin, lovastatin]",IC50,"Hep 3B cells [1]; Homo sapiens, Hep3B, 48 h, read-out: IC50 (cell viability), 48 hr, Table 3",62.3 ± 7.1 µM
same,IC50,"Hep 3B cells [1]; Homo sapiens, Hep3B, 48 h, read-out: IC50 (cell viability), 48 hr, Table 4",63.6 µM
same,IC50,"Hep 3B cells [1]; Homo sapiens, Hep3B, 48 h, read-out: IC50 of lovastatin (cell viability), 48 hr treatment",63.6 ± 7.1 µM
same,viability at 1 µM,"Hep 3B cells [1]; Homo sapiens, Hep3B, 72 h, read-out: Cell viability, lovastatin 1 μM, 72 hr",84.1 ± 4.5%
same,viability at 2 µM,"Hep 3B cells [1]; Homo sapiens, Hep3B, 72 h, read-out: Cell viability, lovastatin 2 μM, 72 hr",71.4 ± 3.8%
same,viability at 5 µM,"Hep 3B cells [1]; Homo sapiens, Hep3B, 72 h, read-out: Cell viability, lovastatin 5 μM alone, 72 hr, Table 23",60.7 ± 2.4%
same,viability at 5 µM,"Hep 3B cells [1]; Homo sapiens, Hep3B, 72 h, read-out: Cell viability, lovastatin 5 μM, 72 hr",58.8 ± 1.8%
same,viability at 10 µM,"Hep 3B cells [1]; Homo sapiens, Hep3B, 72 h, read-out: Cell viability, lovastatin 10 μM alone, 72 hr, Table 23",48.5 ± 2.5%
same,viability at 10 µM,"Hep 3B cells [1]; Homo sapiens, Hep3B, 72 h, read-out: Cell viability, lovastatin 10 μM, 72 hr",41.4 ± 1.5%
same,viability at 50 µM,"Hep 3B cells [1]; Homo sapiens, Hep3B, 72 h, read-out: Cell viability, lovastatin 50 μM, 72 hr",15.2 ± 1.8%
same,IC50,"Hep 3B cells [1]; Homo sapiens, Hep3B, 72 h, read-out: IC50 (cell viability), 72 hr, Table 3",6.8 ± 1.3 µM
same,IC50,"Hep 3B cells [1]; Homo sapiens, Hep3B, 72 h, read-out: IC50 (cell viability), 72 hr, Table 4",6.8 µM
same,IC50,"Hep 3B cells [1]; Homo sapiens, Hep3B, 72 h, read-out: IC50 of lovastatin (cell viability), 72 hr treatment",6.8 ± 1.3 µM
same,viability at 10 µM,"Hep 3B cells [1]; Homo sapiens, Hep3B, 96 h, read-out: Cell viability, lovastatin 10 μM alone, 96 hr, Table 10",29.8 ± 1.2%
same,viability at 10 µM,"Hep 3B cells [1]; Homo sapiens, Hep3B, 96 h, read-out: Cell viability, lovastatin 10 μM alone, 96 hr, Table 21",27.5 ± 8.2%
same,viability at 10 µM,"Hep 3B cells [1]; Homo sapiens, Hep3B, 96 h, read-out: Cell viability, lovastatin 10 μM alone, 96 hr, Table 25",28.6 ± 1.7%
same,IC50,"Hep 3B cells [1]; Homo sapiens, Hep3B, 96 h, read-out: IC50 (cell viability), 96 hr",5.9 µM
same,IC50,"Hep 3B cells [1]; Homo sapiens, Hep3B, 120 h, read-out: IC50 (cell viability), 120 hr",1.3 µM
same,Cell viability,"Hep 3B cells [1]; LOV 1 μM, 48 hr",90.2 ± 0.3^b % of control
same,Cell viability,"Hep 3B cells [1]; LOV 2 μM, 48 hr",86.1 ± 2.0^bc % of control
same,Cell viability,"Hep 3B cells [1]; LOV 5 μM, 48 hr",78.6 ± 4.7^cd % of control
same,Cell viability,"Hep 3B cells [1]; LOV 5 μM, 48 hr, Table 4",78.6 ± 4.7^b % of control
same,Cell viability,"Hep 3B cells [1]; LOV 5 μM, 96 hr",56.4 ± 5.1^c % of control
same,Cell viability,"Hep 3B cells [1]; LOV 5 μM, 120 hr",20.3 ± 3.6^d % of control
same,Cell viability,Hep 3B cells [1]; [3],52.6 ± 2.6^b % of control
same,Cell viability (cell number),Hep 3B cells [1]; [3],5.3 ± 0.1^b 1 × 10^3 cells
same,Cell viability,Hep 3B cells [1]; [4],7.3 ± 0.5^b % of control
same,Cell viability (cell number),Hep 3B cells [1]; [4],1.0 ± 0.1^b 1 × 10^3 cells
same,Cell viability,Hep 3B cells [1]; [5],3.2 ± 1.8^b % of control
same,Cell viability (cell number),Hep 3B cells [1]; [5],0.6 ± 0.5^b 1 × 10^3 cells
same,Cell viability,"Hep 3B cells [1]; LOV 10 μM, 48 hr",66.4 ± 0.8^de % of control
same,Cell viability,"Hep 3B cells [1]; LOV 10 μM, 48 hr, Table 4",66.4 ± 0.8^b % of control
same,Cell viability,"Hep 3B cells [1]; LOV 10 μM, 96 hr",31.7 ± 2.7^d % of control
same,Cell viability,"Hep 3B cells [1]; LOV 10 μM, 120 hr",6.9 ± 1.3^e % of control
same,Cell viability,"Hep 3B cells [1]; LOV 20 μM, 48 hr",55.7 ± 6.6^ef % of control
same,Cell viability,"Hep 3B cells [1]; LOV 50 μM, 48 hr",52.2 ± 1.9^f % of control
same,Cell viability,"Hep 3B cells [1]; lovastatin 5 μM 48 hr, then no CAPE 48 hr",64.3 ± 5.5 % of control
same,Cell viability,"Hep 3B cells [1]; lovastatin 5 μM 48 hr, then no taxol 48 hr",49.8 ± 7.8 % of control
same,Cell viability,"Hep 3B cells [1]; lovastatin 5 μM 72 hr, then no taxol 48 hr",27.7 ± 2.0 % of control
same,Cell viability,"Hep 3B cells [1]; lovastatin 5 μM 72 hr, then no taxol 72 hr",13.0 ± 3.0 % of control
same,Cell viability,"Hep 3B cells [1]; lovastatin 10 μM 48 hr, then no CAO 48 hr",47.9 ± 6.1^de % of control
same,Cell viability,"Hep 3B cells [1]; lovastatin 10 μM 48 hr, then no CAPE 48 hr",59.3 ± 4.5^d % of control
same,Cell viability,"Hep 3B cells [1]; lovastatin 10 μM 48 hr, then no GL-M1 48 hr",53.6 ± 8.2^c % of control
same,Cell viability,"Hep 3B cells [1]; lovastatin 10 μM 48 hr, then no taxol 48 hr",45.7 ± 3.1^d % of control
same,Cell viability,"Hep 3B cells [1]; lovastatin 10 μM 72 hr, then no taxol 48 hr",20.4 ± 7.0^c % of control
same,Cell viability,"Hep 3B cells [1]; lovastatin 10 μM 72 hr, then no taxol 72 hr",14.7 ± 3.6^d % of control
same,Cell viability,"Hep 3B cells [1]; lovastatin 50 μM 48 hr, then no taxol 48 hr",2.9 ± 4.1 % of control
same,Tumor size,"Hep 3B/T2 cells; Cycle 1 (Day 42), LOV 37.5 mg/kg/day p.o. days 28-34 and 49-55 and/or taxol 120 μg/kg/2 day i.p. day 36, 38, 40, 57, 59, 61",0.533 cm^3
same,Tumor size,Hep 3B/T2 cells; [6],1.263 cm^3
same,percentage of inhibition of tumor size,Hep 3B/T2 cells; [6],(−49.5%
same,Tumor size,"Hep 3B/T2 cells; Day 15, LOV 75 mg/kg/day p.o. days 8-14 and/or taxol 120 μg/kg/day i.p. days 15-19, n = 3",0.050 cm^3
same,Tumor size,"Hep 3B/T2 cells; Day 20, LOV 75 mg/kg/day p.o. days 8-14 and/or taxol 120 μg/kg/day i.p. days 15-19, n = 3",0.051 cm^3
same,Tumor size,"Hep 3B/T2 cells; Day 23, LOV 75 mg/kg/day p.o. days 8-14 and/or taxol 120 μg/kg/day i.p. days 15-19, n = 3",0.059 cm^3
same,Tumor size (1 × w^2 × 0.52 cm^3) Day 28,"Hep 3B/T2 cells; Day 28 after inoculation of 1 × 10^7 Hep 3B/T2 cells in male BALB/c-nu/nu nude mice, p.o. lovastatin 37.5 mg/kg/day (days 28-34, 49-55) and/or i.p. taxol 120 μg/kg/2 day (days 36, 38, 40, 57, 59, 61), mean ± SEM",0.170 cm^3
same,Tumor size,"Hep 3B/T2 cells; after two cycles: lovastatin fed 7 days, then paclitaxel injected 3 days (FIG. 38), mean±STD",1.26±1.82 cm^3
same,cell cycle arrest stage,Hep 3B cells [2],G0/G1 arrest
same,IC50,"Hep G2 cells; HepG2, 48 h, read-out: IC50 (cell viability), 48 hr, Table 3",97.2 ± 2.1 µM
same,IC50,"Hep G2 cells; HepG2, 48 h, read-out: IC50 (cell viability), 48 hr, Table 4",97.2 µM
same,IC50,"Hep G2 cells; HepG2, 48 h, read-out: IC50 of lovastatin (cell viability), 48 hr treatment",97.2 ± 2.1 µM
same,IC50,"Hep G2 cells; HepG2, 72 h, read-out: IC50 (cell viability), 72 hr, Table 3",63.6 ± 3.7 µM
same,IC50,"Hep G2 cells; HepG2, 72 h, read-out: IC50 (cell viability), 72 hr, Table 4",62.3 µM
same,IC50,"Hep G2 cells; HepG2, 72 h, read-out: IC50 of lovastatin (cell viability), 72 hr treatment",62.3 ± 3.7 µM
